These results are taken from US9421193B2, “Benzothiazole derivatives and a use thereof for the treatment of cancer” (Korea Institute of Radiological & Medical Sciences, priority 2014, dated 2016).

Assay [1] concerns non-small cell lung cancer cell strain H460. Put plainly: Apoptosis ratio, Annexin V flow cytometry. Format: cell-based, human. The following applies: about 40 hours, 50 μM PB01, 50 μM PB11, 150 μM PB12, FIGS. 9A and 9B. The procedure: About 5×10^5 cells per well of each of the non-small cell lung cancer cell strains A549 and H460 were portioned into a 6-well plate and then incubated with the compounds PB01 or PB11 for about 40 hours in the same manner as described above. A cell layer was washed with PBS and then treated with trypsin-EDTA solution to isolate cells. The isolated cells were collected and stained with an Annexin V Flous Staining kit (available Roche Applied Science, Penzberg, Germany) in a dark condition for about 30 minutes. The stained cells were analyzed by flow cytometry using a FACScan™ (available from Becton Dicknson) to count the number of dead cells and then calculate an apoptosis ratio. The same experiment was performed with 50 μM of PB01, 50 μM of PB11, or 150 μM of PB12 in the same manner as described above. The graphs of cell viability with respect to compound concentration and incubation time obtained based on the experimental results are shown in FIGS. 9A and 9B.
For orientation: Flow cytometry measures light scatter and fluorescence of single cells or particles in a stream.

The test system is the same in assay [2]. Put plainly: Trypan blue live cell count (cell viability). Format: cell-based, human. The following applies: FIGS. 3A and 3B, PB12 at 150 μM. The procedure: Whether the cancer cell growth inhibitory effects of the compounds PB01 and PB11 on the non-small cell lung cancer cell strains is associated with apoptosis was investigated. The cell growth inhibitory effects were evaluated by a trypan blue assay, and cell shapes were observed using an inverted microscope. The shapes of cell nuclei were observed via Hoeschst 33342 staining. Degrees of inducing apoptosis were quantized by flow cytometry (fluorescent activated cell sorting (FACS)).
After about 5×10^3 cells per well of each of the human non-small cell lung cancer cell strains A549 and H460 were portioned into a 96-well plate, about 10 uM to about 50 uM of the compounds PB01 or PB11 in 200 ul of culture solution were added into the wells, and incubated for about 8 to 72 hours. Cells were collected from the incubation product, and centrifuged at about 2,000 rpm for 5 minutes. After removing a supernatant, the remaining cells were mixed with 1 mL of phosphate-buffered saline (PBS) to obtain a cell suspension, which was then mixed with an equal amount of 0.5% trypan blue (Gibco BRL), followed by treatment for about 1 minute. The number of live cells was counted using a phase-contrast) microscope. The live cell counting was repeated three times, and an average live cell count and a standard error were calculated using a Microsoft Excel program. Cell viability graphs with respect to compound concentration and incubation time were obtained. The same experiment was performed with 50 μM of the compound PB01, PB11 50 μM of the compound PB11, or 150 μM of the compound PB12 150 μM, and cell viability graphs with respect to compound concentration and incubation time were obtained.

Structures are written as SMILES.

As for `Cc1noc(C)c1CSc1nc2ccc(NC(=O)C3CCC(O)CC3)cc2s1` (centres unmarked) [PB12], in assay [1], the “apoptosis induction (Annexin V)” value is listed as “kill the non-small cell lung cancer cells by inducing apoptosis”. Besides, in assay [2], the “cancer cell apoptosis effect with respect to concentration and incubation time” value was “improved cancer cell apoptosis effects with increases in concentration and incubation time”.
